From ChEMBL document CHEMBL1141782, “Antineoplastic agents. 553. The Texas grasshopper Brachystola magna” (2005)
Values after ≈ are worked out from the molar mass of the structure shown.

Legend:
Format in all cases: functional
DU-145 = experiment: Cytotoxicity against human DU145 cells after 48 hrs by SRB assay; details: DU-145, 48 h, read-out: ED50 (the source's name)
NCI-H460 = experiment: Cytotoxicity against human NCI-H460 cells after 48 hrs by SRB assay; details: NCI-H460, 48 h, read-out: ED50 (the source's name)
SF-268 = experiment: Cytotoxicity against human SF268 cells after 48 hrs by SRB assay; details: SF-268, 48 h, read-out: ED50 (the source's name)
KM-20L2 = experiment: Cytotoxicity against human KM20L2 cells after 48 hrs by SRB assay; details: KM-20L2, 48 h, read-out: ED50 (the source's name)
BXPC-3 = experiment: Cytotoxicity against human BxPC3 cells after 48 hrs by SRB assay; details: BXPC-3, 48 h, read-out: ED50 (the source's name)
MCF7 = experiment: Cytotoxicity against human MCF7 cells after 48 hrs by SRB assay; details: MCF7, 48 h, read-out: ED50 (the source's name)
P388 = experiment: Cytotoxicity against mouse P388 cells; details: read-out: ED50 (the source's name)

O=C1N[C@@H]2C(=C[C@H](O)[C@@H](O)[C@H]2O)c2cc3c(c(O)c21)OCO3 [NARCICLASINE]
EC50 (DU-145): 0.012 µg/mL (≈ 0.0391 µM)
EC50 (NCI-H460): 0.014 µg/mL (≈ 0.0456 µM)
EC50 (SF-268): 0.018 µg/mL (≈ 0.0586 µM)
EC50 (KM-20L2): 0.023 µg/mL (≈ 0.0749 µM)
EC50 (BXPC-3): 0.024 µg/mL (≈ 0.0781 µM)
EC50 (MCF7): 0.014 µg/mL (≈ 0.0456 µM)
EC50 (P388): 0.018 µg/mL (≈ 0.0586 µM)

O=C1N[C@H]2[C@H](O)[C@H](O)[C@@H](O)[C@H](O)[C@@H]2c2cc3c(c(O)c21)OCO3 [PANCRATISTATIN]
EC50 (DU-145): 0.037 µg/mL (≈ 0.114 µM)
EC50 (NCI-H460): 0.029 µg/mL (≈ 0.0892 µM)
EC50 (SF-268): 0.032 µg/mL (≈ 0.0984 µM)
EC50 (KM-20L2): 0.048 µg/mL (≈ 0.148 µM)
EC50 (BXPC-3): 0.043 µg/mL (≈ 0.132 µM)
EC50 (MCF7): 0.035 µg/mL (≈ 0.108 µM)
EC50 (P388): 0.048 µg/mL (≈ 0.148 µM)

[O-]c1cc2c3c(c1)c1cc4c(cc1c[n+]3CC2)OCO4 [UNGEREMINE]
EC50 (DU-145): 0.029 µg/mL (≈ 0.109 µM)
EC50 (NCI-H460): 0.65 µg/mL (≈ 2.45 µM)
EC50 (SF-268): 0.057 µg/mL (≈ 0.215 µM)
EC50 (KM-20L2): 0.5 µg/mL (≈ 1.88 µM)
EC50 (BXPC-3): 0.87 µg/mL (≈ 3.28 µM)
EC50 (MCF7): 0.48 µg/mL (≈ 1.81 µM)
EC50 (P388): 1.2 µg/mL (≈ 4.52 µM)
